In patent US20030114469A1, “Combinations” (priority 2001, published 2003) one finds IC50 data, which are given here for ten compounds.

Molecules are shown by their SMILES.

The first assay concerns the target T1, human PDE5, partially purified from human platelets (Homo sapiens, UniProt O76074).
T1 construct: human PDE5, partially purified from human platelets; from tissue; host or cells: human platelets
Put plainly: PDE5 Assay (SPA, 3H-cGMP). The assay is classed as biochemical.
Settings: not given
The procedure:
10 μL of each of these solutions is transferred to a selected well of a 96-well Optiplate microtitre plate (e.g., Packard). To determine total binding, 10 μL of aqueous 20% v/v DMSO is added to other selected wells. To determine non-specific binding, a 10 mM solution of sildenafil in 100% DMSO is diluted 20-fold with aqueous 20% v/v DMSO and 10 μL of the resulting solution is added to further selected wells of the Optiplate plate. […] (The PDE Assay Buffer is prepared by dissolving Tris-base (7.56 g) in water (800 mL), adding 1 M aqueous MgCl2 (10.325 mL) and 0.5 M EDTA (4.25 mL), adjusting the pH to 7.5 with 1N hydrochloric acid and making up to 1 L with water). A solution of human PDE5, partially purified from human platelets (11 μL, containing 0.017 units of PDE5 per mL, where 1 unit hydrolyses 1.0 μmole of 3′,5′-cyclic GMP to 5′-GMP per minute at pH 7.5 at 37° C.), in 20 mM Hepes, pH 7.4, 100 mM sodium chloride, 10% v/v glycerol, 1 mM benzamidine and 2 mM dithiotherietol, is diluted 200-fold, with Enzyme Buffer prepared by adding 0.5 M EDTA (2 mL) to a solution of Tris-Base (1.21 g) in water (800 mL), adjusting the pH to 7.5 with 1N HCl and making up to 1 L with water. The diluted PDE5 solution (10 μL) is added to all wells containing test compound, aqueous DMSO or sildenafil solution. The plate is incubated at room temperature for 1 hour. Fifty (50) μL of a suspension of 500 mg PDE Yttrium silicate SPA beads (e.g., Amersham) in 28 mL water is added to each of the wells and the plate is incubated for a further 20 minutes and then sealed using Top Seal-S (e.g., Packard) according to the manufacturer's instructions. The resulting scintillations are counted using a Canberra Packard Top Count (1 minute per well), as a measure of the extent to which binding of PDE5 to the beads is inhibited.
As for `COc1cc2cncc(Cc3nc4c([nH]3)c(=O)n(C)c(=O)n4CC(C)C)c2cc1OC` [Example 10, 8-(6,7-dimethoxy-isoquinolin-4-ylmethyl)-3-isobutyl-1-methyl-3,7-dihydro-purine-2,6-dione], the IC50 came to 10 nM.

`COc1cc2cncc(Cc3nc4c([nH]3)c(=O)n(C)c(=O)n4CC(C)(C)C)c2cc1OC` [Example 15] returned an IC50 of 6 nM.

As for `COc1ccc2cncc(Cc3nc4c([nH]3)c(=O)n(C)c(=O)n4CC(C)C)c2c1` [Example 45, 3-isobutyl-8-(6-methoxy-isoquinolin-4-ylmethyl)-1-methyl-3,7-dihydro-purine-2,6-dione], the IC50 worked out at 2 nM.

Regarding `COc1cc2cncc(Cc3nc4c([nH]3)c(=O)n(C)c(=O)n4CC(C)CO)c2cc1OC` (stereo not shown) [Example 68, 8-(6,7-dimethoxy-isoquinolin-4-ylmethyl)-3-(3-hydroxy-2-methyl-propyl)-1-methyl-3,7-dihydro-purine-2,6-dione], the IC50 is 7 nM.

In the case of `COc1cc2c(Cc3nc4c([nH]3)c(=O)n(C)c(=O)n4CC(C)C)cnc(C)c2cc1OC` [Example 7, 8-(6,7-dimethoxy-1-methyl-isoquinolin-4-ylmethyl)-3-isobutyl-1-methyl-3,7-dihydro-purine-2,6-dione], the IC50 was found to be 7 nM.

Still in this assay, the particulars now being: human platelet PDE5, 3H-cGMP, room temperature 1 hour, yttrium silicate SPA beads; read-out: IC50 (concentration of test compound at which 50% inhibition of PDE5 binding to the beads occurs).
Take `COc1ccc2cncc(Cc3nc4c([nH]3)c(=O)n(C)c(=O)n4CC3CC3)c2c1` [Example 49]: the IC50 was 3.7 nM.

Take `COc1cc2c(Cc3nc4c([nH]3)c(=O)n(C)c(=O)n4CC(C)C)cnc(Cl)c2cc1OC` [Example 35, 8-(1-chloro-6,7-dimethoxy-isoquinolin-4-ylmethyl)-3-isobutyl-1-methyl-3,7-dihydro-purine-2,6-dione]: the IC50 is 10 nM.

As for `C#Cc1ccc2cncc(Cc3nc4c([nH]3)c(=O)n(C)c(=O)n4CC(C)C)c2c1` [Example 55, 8-(6-ethynyl-isoquinolin-4-ylmethyl)-3-isobutyl-1-methyl-3,7-dihydro-purine-2,6-dione], the IC50 was 5.5 nM.

For the compound `COc1cc2cncc(Cc3nc4c([nH]3)c(=O)n(C)c(=O)n4Cc3ccc(NS(=O)(=O)N(C)C)cc3)c2cc1OC` [Example 60], the IC50 is 2.8 nM.

With `COc1cc2cncc(Cc3nc4c(=O)n(C)c(=O)n(CC5(C)CC5)c4[nH]3)c2cc1OC` [Example 70, 8-(6,7-dimethoxy-isoquinolin-4-ylmethyl)-1-methyl-3-(1-methyl-cyclopropylmethyl)-3,9-dihydro-purine-2,6-dione], the IC50 was determined as 9 nM.
